In ChEMBL document CHEMBL1125709, “Substituent effect on the stereochemistry of H2-receptor antagonists of the phenylformamidine series. A conformation-dependent mode of interaction with the H2 receptor” (J Med Chem, 1991):

Each molecule was assayed against Histamine H2 receptor (Cavia porcellus, UniProt P47747) (assay: Histamine H2 receptor antagonism on the right atrium of the guinea pig). Conditions: read-out: pA2 (converted).
Chain of Histamine H2 receptor (P47747 whole entry): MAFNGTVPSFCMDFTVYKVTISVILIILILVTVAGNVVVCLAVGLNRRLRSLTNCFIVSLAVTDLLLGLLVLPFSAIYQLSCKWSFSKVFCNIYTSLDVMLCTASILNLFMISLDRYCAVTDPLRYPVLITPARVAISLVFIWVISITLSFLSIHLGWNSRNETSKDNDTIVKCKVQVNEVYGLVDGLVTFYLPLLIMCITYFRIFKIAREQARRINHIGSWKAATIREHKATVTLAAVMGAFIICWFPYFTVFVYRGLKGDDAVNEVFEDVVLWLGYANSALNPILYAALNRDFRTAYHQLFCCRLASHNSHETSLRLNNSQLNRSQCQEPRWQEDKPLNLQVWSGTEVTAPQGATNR
Assay type: functional, tissue-based, Cardiac atrium
A Kb of 42.7 nM was found for `CC/N=C/Nc1ccc(-c2c[nH]cn2)cc1` in this work. A Kb of 5.25 nM was found for `CC(C)CN/C=N/c1ccc(-c2c[nH]cn2)cc1` in this work. A Kb of 7.59 nM was found for `CCC(C)(C)N/C=N/c1ccc(-c2c[nH]cn2)cc1` in this work. A Kb of 11.2 nM was found for `CCCCN/C=N/c1ccc(-c2c[nH]cn2)cc1` in this work. A Kb of 31.6 nM was found for `CCC(CC)N/C=N/c1ccc(-c2c[nH]cn2)cc1` in this work. A Kb of 28.2 nM was found for `CC(C)/N=C/Nc1ccc(-c2c[nH]cn2)cc1` in this work. A Kb of 1200 nM was found for `CN/C=N/c1ccc(-c2c[nH]cn2)cc1` in this work. A Kb of 14.1 nM was found for `CCC(C)N/C=N/c1ccc(-c2c[nH]cn2)cc1` (centres undefined) in this work. A Kb of 11.2 nM was found for `CC(C)(C)/N=C/Nc1ccc(-c2c[nH]cn2)cc1` in this work.
